From PubChem BioAssay (NCI)
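GI50 is the concentration that inhibits growth by half. At the TGI there is no net growth.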

Key:
Assay in all cases: NCI-60 cell line screen, 384-well format
A498 renal = tested on: A498 renal
BT-549 breast = tested on: BT-549 breast
COLO 205 colon = tested on: COLO 205 colon
DU-145 prostate = tested on: DU-145 prostate
EKVX NSCLC = tested on: EKVX NSCLC
HCC-2998 colon = tested on: HCC-2998 colon
HCT-116 colon = tested on: HCT-116 colon
HCT-15 colon = tested on: HCT-15 colon
HL-60(TB) leukemia = tested on: HL-60(TB) leukemia
HOP-62 NSCLC = tested on: HOP-62 NSCLC
HS 578T breast = tested on: HS 578T breast
HT29 colon = tested on: HT29 colon
K-562 leukemia = tested on: K-562 leukemia
KM12 colon = tested on: KM12 colon
LOX IMVI melanoma = tested on: LOX IMVI melanoma
M14 melanoma = tested on: M14 melanoma
MALME-3M melanoma = tested on: MALME-3M melanoma
MCF7 breast = tested on: MCF7 breast
MDA-MB-231 breast = tested on: MDA-MB-231 breast
MDA-MB-468 breast = tested on: MDA-MB-468 breast
MOLT-4 leukemia = tested on: MOLT-4 leukemia
NCI-H226 lung = tested on: NCI-H226 lung
NCI-H23 lung = tested on: NCI-H23 lung
NCI-H322M lung = tested on: NCI-H322M lung
NCI-H460 NSCLC = tested on: NCI-H460 NSCLC
NCI-H522 lung = tested on: NCI-H522 lung
NCI/ADR-RES ovarian = tested on: NCI/ADR-RES ovarian
OVCAR-3 ovarian = tested on: OVCAR-3 ovarian
OVCAR-4 ovarian = tested on: OVCAR-4 ovarian
OVCAR-5 ovarian = tested on: OVCAR-5 ovarian
OVCAR-8 ovarian = tested on: OVCAR-8 ovarian
PC-3 prostate = tested on: PC-3 prostate
RPMI-8226 leukemia = tested on: RPMI-8226 leukemia
RXF 393 renal = tested on: RXF 393 renal
SF-268 CNS = tested on: SF-268 CNS
SF-295 CNS = tested on: SF-295 CNS
SF-539 CNS = tested on: SF-539 CNS
SK-MEL-5 melanoma = tested on: SK-MEL-5 melanoma
SK-OV-3 ovarian = tested on: SK-OV-3 ovarian
SN12C renal = tested on: SN12C renal
SNB-75 CNS = tested on: SNB-75 CNS
SR leukemia = tested on: SR leukemia
SW-620 colon = tested on: SW-620 colon
T-47D breast = tested on: T-47D breast
UACC-257 melanoma = tested on: UACC-257 melanoma
UACC-62 melanoma = tested on: UACC-62 melanoma
UO-31 renal = tested on: UO-31 renal

In the case of `C/C=C1\NC(=O)[C@H]2CSSCCC=C[C@H](CC(=O)N[C@H](C(C)C)C(=O)N2)OC(=O)[C@H](C(C)C)NC1=O`, the GI50 (A498 renal) is reported as under 10 nM, the TGI (A498 renal) is reported as under 10 nM and the GI50 (BT-549 breast) is reported as under 10 nM. For the same compound, the TGI (BT-549 breast) was under 10 nM, the GI50 (COLO 205 colon) was under 10 nM and the TGI (COLO 205 colon) was under 10 nM. For the same compound, the GI50 (DU-145 prostate) was under 10 nM, the TGI (DU-145 prostate) was under 10 nM and the GI50 (EKVX NSCLC) was under 10 nM. For the same compound, the TGI (EKVX NSCLC) was 30.8 nM, the GI50 (HCC-2998 colon) was under 10 nM and the TGI (HCC-2998 colon) was under 10 nM. The GI50 (HCT-116 colon) was under 10 nM, the TGI (HCT-116 colon) was under 10 nM and the GI50 (HCT-15 colon) was 82.9 nM. For the same compound, the TGI (HCT-15 colon) was 806 nM, the GI50 (HL-60(TB) leukemia) was under 10 nM and the TGI (HL-60(TB) leukemia) was under 10 nM. For the same compound, the GI50 (HOP-62 NSCLC) was under 10 nM, the TGI (HOP-62 NSCLC) was under 10 nM and the GI50 (HS 578T breast) was under 10 nM. It also gave a TGI (HS 578T breast) of under 10 nM, a GI50 (HT29 colon) of under 10 nM and a TGI (HT29 colon) of under 10 nM. For the same compound, the GI50 (K-562 leukemia) was under 10 nM, the TGI (K-562 leukemia) was under 10 nM and the GI50 (KM12 colon) was under 10 nM. For the same compound, the TGI (KM12 colon) was under 10 nM, the GI50 (LOX IMVI melanoma) was under 10 nM and the TGI (LOX IMVI melanoma) was under 10 nM. For the same compound, the GI50 (M14 melanoma) was under 10 nM, the TGI (M14 melanoma) was under 10 nM and the GI50 (MALME-3M melanoma) was under 10 nM. It also gave a TGI (MALME-3M melanoma) of under 10 nM, a GI50 (MCF7 breast) of under 10 nM and a TGI (MCF7 breast) of under 10 nM. It also gave a GI50 (MDA-MB-231 breast) of under 10 nM, a TGI (MDA-MB-231 breast) of under 10 nM and a GI50 (MDA-MB-468 breast) of under 10 nM. The TGI (MDA-MB-468 breast) was under 10 nM, the GI50 (MOLT-4 leukemia) was under 10 nM and the TGI (MOLT-4 leukemia) was under 10 nM. For the same compound, the GI50 (NCI-H226 lung) was under 10 nM, the TGI (NCI-H226 lung) was 19.2 nM and the GI50 (NCI-H23 lung) was under 10 nM. It also gave a TGI (NCI-H23 lung) of under 10 nM, a GI50 (NCI-H322M lung) of under 10 nM and a TGI (NCI-H322M lung) of under 10 nM. The GI50 (NCI-H460 NSCLC) was under 10 nM, the TGI (NCI-H460 NSCLC) was 10.1 nM and the GI50 (NCI-H522 lung) was under 10 nM. It also gave a TGI (NCI-H522 lung) of under 10 nM, a GI50 (NCI/ADR-RES ovarian) of 2850 nM and a TGI (NCI/ADR-RES ovarian) of 13800 nM. It also gave a GI50 (OVCAR-3 ovarian) of under 10 nM, a TGI (OVCAR-3 ovarian) of under 10 nM and a GI50 (OVCAR-4 ovarian) of under 10 nM. It also gave a TGI (OVCAR-4 ovarian) of under 10 nM, a GI50 (OVCAR-5 ovarian) of under 10 nM and a TGI (OVCAR-5 ovarian) of under 10 nM. The GI50 (OVCAR-8 ovarian) was under 10 nM, the TGI (OVCAR-8 ovarian) was under 10 nM and the GI50 (PC-3 prostate) was under 10 nM. For the same compound, the TGI (PC-3 prostate) was under 10 nM, the GI50 (RPMI-8226 leukemia) was under 10 nM and the TGI (RPMI-8226 leukemia) was under 10 nM. The GI50 (RXF 393 renal) was under 10 nM, the TGI (RXF 393 renal) was under 10 nM and the GI50 (SF-268 CNS) was under 10 nM. It also gave a TGI (SF-268 CNS) of under 10 nM, a GI50 (SF-295 CNS) of under 10 nM and a TGI (SF-295 CNS) of under 10 nM. The GI50 (SF-539 CNS) was under 10 nM, the TGI (SF-539 CNS) was under 10 nM and the GI50 (SK-MEL-5 melanoma) was under 10 nM. For the same compound, the TGI (SK-MEL-5 melanoma) was under 10 nM, the GI50 (SK-OV-3 ovarian) was under 10 nM and the TGI (SK-OV-3 ovarian) was under 10 nM. The GI50 (SN12C renal) was under 10 nM, the TGI (SN12C renal) was under 10 nM and the GI50 (SNB-75 CNS) was under 10 nM. The TGI (SNB-75 CNS) was under 10 nM, the GI50 (SR leukemia) was under 10 nM and the TGI (SR leukemia) was under 10 nM. It also gave a GI50 (SW-620 colon) of under 10 nM, a TGI (SW-620 colon) of under 10 nM and a GI50 (T-47D breast) of under 10 nM. The TGI (T-47D breast) was under 10 nM, the GI50 (UACC-257 melanoma) was under 10 nM and the TGI (UACC-257 melanoma) was under 10 nM. For the same compound, the GI50 (UACC-62 melanoma) was under 10 nM, the TGI (UACC-62 melanoma) was under 10 nM and the GI50 (UO-31 renal) was 43.6 nM. The TGI (UO-31 renal) was 159 nM.
